Key:
Plasmodium falciparum [1] = assay: NOVARTIS: Inhibition of Plasmodium falciparum 3D7 (drug-susceptible) proliferation in erythrocyte-based infection assay; assay type: functional, organism-based; details: Plasmodium falciparum, 3D7
Plasmodium falciparum [2] = assay: NOVARTIS: Inhibition of Plasmodium falciparum W2 (drug-resistant) proliferation in erythrocyte-based infection assay; assay type: functional, organism-based; details: Plasmodium falciparum, W2; read-out: EC50
[3] = NOVARTIS: Cytotoxicity against human hepatocellular carcinoma cell line (Huh7); assay type: toxicity, cell-based, Huh-7; details: Huh7 cells (hepatocellular carcinoma cell line)

| Structure (SMILES) | EC50 (Plasmodium falciparum [1]) | EC50 (Plasmodium falciparum [2]) | CC50 [3] |
| --- | --- | --- | --- |
| CN(C)c1cc(NC(=O)Nc2ccccc2)c2ccccc2n1 | 148 nM | 332 nM | 6780 nM |
| CC[C@@H]1CN2CC[C@H]1C[C@H]2[C@H](O)c1ccnc2ccc(OC)cc12 | 103 nM | 298 nM | > 6250 nM |
| Cc1cc(Nc2cccc(C(F)(F)F)c2)nc(N)n1 | 676 nM | 1860 nM | 39600 nM |
| COc1ccc(CCN2C(=O)c3ccc(Oc4ccc(NC(=O)c5oc(=O)c6ccccc6c5-c5ccccc5)cc4)cc3C2=O)cc1OC | > 12500 nM | 4800 nM | > 100000 nM |
| CCN1C=CC(=Cc2ccc3ccccc3[n+]2C)C=C1 | 453 nM | 976 nM | 20000 nM |
| OCCNc1nc(Nc2ccc(Br)cc2)nc2ccccc12 | 490 nM | 566 nM | 12000 nM |
| Oc1cccc(Nc2nc(NCC3CCCO3)c3ccccc3n2)c1 (stereo not drawn) | 266 nM | 341 nM | 6980 nM |
| COc1ccc2nc(-c3ccccc3)cc(NCCN(C)C)c2c1 | 171 nM | 478 nM | > 10000 nM |
| Oc1cccc(-c2nc(-c3ccccc3)c(-c3ccc4oc5ccc(-c6[nH]c(-c7cccc(O)c7)nc6-c6ccccc6)cc5c4c3)[nH]2)c1 | 2350 nM | 1010 nM | 20400 nM |
| CCCCCCCCC(=O)N1CCN(C(CC)c2nc3ccccc3c(=O)n2C)CC1 (stereo not drawn) | 492 nM | 500 nM | > 10000 nM |
| COc1ccccc1C(=O)N1CCN(Cc2ccc3ccccc3c2)CC1 | > 12500 nM | 4860 nM | > 100000 nM |
| O=C(CN1C(=O)c2ccccc2C1=O)Nc1cc(Cl)ccc1C(=O)O | > 1250 nM | 486 nM | > 10000 nM |
| COc1ccccc1CN1CCC(S(=O)(=O)c2ccccc2)CC1 | 349 nM | 52.3 nM | 1080 nM |
| CN(C)C(=O)C1C2NC(=S)N(c3ccccc3)C1(C)Oc1ccccc12 (stereo not drawn) | 1750 nM | 483 nM | > 10000 nM |
| O=C(Cn1ccc(=NCc2ccccc2)cc1)c1ccc(Cl)cc1 | 296 nM | 602 nM | 12800 nM |
| CC(C)CC(N)C(=O)N1CCc2nc(Cc3ccc(F)cc3Cl)sc2C1 (stereo not drawn) | > 1250 nM | 471 nM | > 10000 nM |
| O=C(Nc1ccccc1C(=O)O)c1cccc(NC(=O)c2ccco2)c1 | > 947 nM | 471 nM | > 10000 nM |
| COc1ccc(NC(=O)c2cccc([N+](=O)[O-])c2C)cc1 | > 3550 nM | 4770 nM | > 100000 nM |
| CCN1CCC(Nc2ccnc3cc4ccccc4cc23)CC1 | 81.5 nM | 477 nM | > 10000 nM |
| Cc1ccccc1-c1cnnc(NCC2CCCCO2)n1 (stereo not drawn) | 11100 nM | 4820 nM | > 100000 nM |
| CCC(c1nc2ccccc2c(=O)n1CCOC)N1CCNCC1 (stereo not drawn) | 369 nM | > 469 nM | > 10000 nM |
| CN1CCc2c(C#N)c(N3CCCC3)nc(N3CCCC3)c2C1 | 2120 nM | 4820 nM | > 100000 nM |
| CCCCCN(C(=O)c1cccc(F)c1)C(CC)c1nc2ccccc2c(=O)n1-c1ccc(Cl)cc1C (stereo not drawn) | 1460 nM | 480 nM | > 10000 nM |
| CCOC(=O)C1CSC(c2ccc(C(F)(F)F)cc2)N1C(=O)/C=C/c1ccccc1 (stereo not drawn) | > 1340 nM | 381 nM | > 7950 nM |

| Structure (SMILES) | EC50 (Plasmodium falciparum [1]) | EC50 (Plasmodium falciparum [2]) | CC50 [3] |
| --- | --- | --- | --- |
| COc1ccc(NC(=O)c2cc3cc(C4(O)CCN(CC(C)(C)C)CC4)ccc3o2)cc1OC | > 1250 nM | 480 nM | > 10000 nM |
| COc1ccc(/C=C/c2nc(=O)c3ccccc3o2)cc1 | 1240 nM | 480 nM | > 10000 nM |
| Cc1ccccc1C(=O)NCCCCNc1ccnc2cc(Cl)ccc12 | 450 nM | 479 nM | > 10000 nM |
| O=C(NCCCCNc1ccnc2cc(Cl)ccc12)C1CCCC1 | 409 nM | 485 nM | > 10000 nM |
| COc1ccc(S(=O)(=O)NCCCCNc2ccnc3cc(Cl)ccc23)cc1 | 345 nM | 484 nM | > 10000 nM |
| O=C(NCCCCNc1ccnc2cc(Cl)ccc12)c1ccccc1Br | 468 nM | 494 nM | > 10000 nM |
| COc1ccccc1NC(=O)c1cnn(-c2ccccc2)c1-n1cccc1 | > 119 nM | 494 nM | > 10000 nM |
| CN1CCN(c2cc(-c3ccncc3)nc(-c3cccnc3)n2)CC1 | 511 nM | 494 nM | > 10000 nM |
| CCOC(=O)c1cnc2c(OC)cccc2c1Nc1ccc(OC)c(OC)c1 | 827 nM | 493 nM | > 10000 nM |
| O=[N+]([O-])c1cc(C(F)(F)F)c(Cl)c([N+](=O)[O-])c1Nc1cc(C(F)(F)F)ccc1Cl | 565 nM | 301 nM | 6130 nM |
| CCOc1ccc(N=C2NC(=O)SC2=C2C(=O)Nc3ccc(Br)cc32)cc1 | > 12500 nM | 4910 nM | > 100000 nM |
| c1ccc(CN2CCC(Nc3ncnc4cc(-c5ccccc5)sc34)CC2)cc1 | 2060 nM | 4890 nM | > 100000 nM |
| COCCNCCN1CCN(c2ccc(C)cc2)C[C@@H]1c1ccccc1 | 436 nM | 548 nM | 11200 nM |
| Cc1ccc(N=C2NC(=O)/C(=C\c3cc(C)n(-c4cccc([N+](=O)[O-])c4)c3C)S2)cc1 | 442 nM | 488 nM | > 10000 nM |
| CN(C)c1cc[n+](Cc2ccccc2)cc1 | 2420 nM | > 4870 nM | > 100000 nM |
| CN(C)c1ccc(/C=C2\SC(=Nc3ccc(F)cc3)NC2=O)cc1 | 361 nM | 493 nM | > 10000 nM |
| CCN(CC)CCCC(C)NCc1ccc(OCc2ccccc2)c(OC)c1 (stereo not drawn) | 771 nM | 494 nM | > 10000 nM |
| OC(CNC1CCN(Cc2ccccc2)CC1)COc1ccc(Br)cc1 (stereo not drawn) | 745 nM | 499 nM | > 10000 nM |
| CCCCCCCCCn1c2c(c(=N)c3c1CCC3)CCCC2 | 132 nM | 185 nM | 3740 nM |
| Cc1ccc(S(=O)(=O)N=C2C=C(Sc3nc4ccccc4[nH]3)C(=O)c3ccccc32)cc1 | 632 nM | 834 nM | 16800 nM |
| CC(C)(C)CC(C)(C)Nc1c(-c2ccccc2OC(=O)c2ccco2)nc2ccccn12 | > 12500 nM | 4960 nM | > 100000 nM |
| CCN1C=C(c2ccc(C)cc2)S/C1=C\c1sc2ccccc2[n+]1C | 362 nM | 938 nM | 18800 nM |
| COc1ccc(-c2ccc3c(N)c(C(=O)NCCc4ccccc4)sc3n2)cc1OC | > 10800 nM | 4970 nM | > 100000 nM |
| Cc1cc(N2CCN(C)CC2)nc2ccc(NC(=O)c3ccc(Br)o3)cc12 | 1680 nM | 2680 nM | 53700 nM |

| Structure (SMILES) | EC50 (Plasmodium falciparum [1]) | EC50 (Plasmodium falciparum [2]) | CC50 [3] |
| --- | --- | --- | --- |
| CCN(Cc1ccccc1)Cc1c(O)ccc2oc(C)c(C(=O)Nc3ccc(C)cc3C)c12 | 3490 nM | 2100 nM | 42300 nM |
| CCC(Sc1nc(C)cc(-c2ccccc2)n1)C(=O)Nc1cccc2ccccc12 (stereo not drawn) | > 1250 nM | 496 nM | > 10000 nM |
| Cc1nn(C(=O)NS(=O)(=O)c2ccccc2Cl)c(C)c1C | > 810 nM | > 496 nM | > 10000 nM |
| CCOC(=O)C1=C(C)N=c2sc(=Cc3c4ccccc4cc4ccccc34)c(=O)n2C1c1cc(OC)ccc1OC (stereo not drawn) | > 12500 nM | 4770 nM | > 100000 nM |
| CCCCOC(=O)Cc1ccc(N)cc1 | 462 nM | 284 nM | 5970 nM |
| COc1ccc(CN(Cc2cc3cccc(C)c3[nH]c2=O)C(=S)NC2CCCCC2)cc1 | > 1250 nM | 487 nM | > 10000 nM |
| O=C(Nc1ccc(Oc2cccc(Oc3ccc(NC(=O)c4ccc(Br)o4)cc3)c2)cc1)c1ccc(Br)o1 | 4420 nM | 4710 nM | > 100000 nM |
| O=C(NC1CC1)C1CCN(S(=O)(=O)c2ccc(Cl)cc2)CC1 | 5000 nM | 4720 nM | > 100000 nM |
| Cc1ccc(-c2cc(-c3cc(Cl)ccc3O)on2)cc1 | > 798 nM | 472 nM | > 10000 nM |
| Cc1ccc2nc3c(c(Nc4ccc(N(C)C)cc4)c2c1)CCC3 | 1790 nM | 950 nM | 19800 nM |
| O=C(c1ccc([N+](=O)[O-])cc1[N+](=O)[O-])N1CCCCC1 | > 12500 nM | 4860 nM | > 100000 nM |
| Cc1cc(N2CCCC2)nc2ccc(NC(=S)NCCCN3CCc4ccccc4C3)cc12 | 263 nM | 924 nM | 19100 nM |
| C=CCSc1oc(-c2ccco2)nc1[P+](c1ccccc1)(c1ccccc1)c1ccccc1 | 310 nM | 416 nM | 8420 nM |
| COc1cc(OC)nc(CSc2ccc(NC(=O)CCl)cc2)n1 | 518 nM | 479 nM | > 10000 nM |
| O=C(Nc1ccc(N2CCCCC2)cc1)N1CCc2nc[nH]c2C1c1ccc(Cl)cc1 (stereo not drawn) | 640 nM | 239 nM | > 5040 nM |
| Fc1ccc(CSc2nc3cccnc3[nH]2)cc1 | 3620 nM | 4800 nM | > 100000 nM |
| c1ccc(N=c2n(-c3ccccc3)c(=Nc3ccccc3)n(-c3ccccc3)c(=Nc3ccccc3)n2-c2ccccc2)cc1 | > 1350 nM | > 468 nM | > 10000 nM |
| COc1cc(C(=O)Nc2cnc3ccccc3c2)ccc1-n1cnnn1 | 3980 nM | 4750 nM | > 100000 nM |
| CC(=O)N1CCNC1=Nc1c(Cl)nc(C)nc1Cl | 444 nM | 498 nM | > 10000 nM |
| COc1cc(CN2CCN(c3ccccn3)CC2)cc(I)c1O | > 9900 nM | 4890 nM | > 100000 nM |
| C=CCOc1ccccc1CN1CCN(c2ccccn2)CC1 | > 9990 nM | 4850 nM | > 98500 nM |
| COc1cc(OC)cc(C(=O)N2CCC(C(=O)Nc3cccc4ccccc34)CC2)c1 | > 481 nM | 485 nM | > 10000 nM |
| O=C(CCCCCN1C(=O)c2cccc3cccc(c23)C1=O)NO | 563 nM | 164 nM | 3320 nM |
